# Laboratory results reported in US10053666B2, “Medium for preparing a neural cell and usage thereof” (SHENZHEN CELL INSPIRE BIOTECHNOLOGY CO., LTD., priority 2014, dated 2018).
# What was measured:
# IMR90 = experiment: Conversion of fibroblast cell line to neural cell / iOPC in neural induction medium; assay type: cell-based, human; details: for conversion into neural cell: 10 μM in neural induction medium, IMR90
# Experimental: (§1) Using the same method with EXAMPLE 1, cultured fiber cell line IMR90 and WI38 with neural induction medium including 10 μM Y27632, Palomid 529, LY294002, PF562271 or rapamycin.
# (§2) In contrast, after 4 weeks in the same induction medium without ROCK inhibitor, cells kept fibroblast morphology with negative staining of O4, A2B5, and S100β (data not shown). […] To confirm conversion of fibroblasts to iOPCs by ROCK inhibitor, additional two human primary fibroblast cell lines, IMR90 and WI38, were tested using the same fibroblast—OPC conversion conditions. Consistent with the results from adult dermal cells, inventors observed 60-80% of fibroblast—OPC conversion in these two cell lines (data not shown). Next, inventors assessed whether the iOPCs could differentiate into mature oligodendrocytes. After removing growth factors and addition of thyroid hormone (a known inducer of oligodendrocyte differentiation) in cell culture medium, about 70% of the iOPCs differentiated into cells with a multiprocessed morphology typical of oligodendrocytes within 3-7 days (FIG. 2b). The oligodendrocytes expressed myelin basic protein (MBP), an integral protein component of the myelin sheath, and other defining markers of mature oligodendrocytes, including myelin-associated glycoprotein and myelin oligodendrocyte glycoprotein (FIG. 2b). Thus, inventors concluded that ROCK inhibitor-induced iOPCs can be further differentiated into mature functional oligodendrocytes.
# WI38 = experiment: as above; assay type: cell-based, human; details: for conversion into neural cell: 10 μM in neural induction medium, WI38
# Experimental: as §1, §2
# [1] = test system: human adult dermal fibroblasts; experiment: Screening of protein kinase inhibitor library for fibroblast-OPC conversion; assay type: cell-based; details: with retinoic acid (RA), neural induction medium, quantified on day 7
# Experimental: 1. Coated cell culture 24-well plate with 0.1 mg/ml Poly-L-ornithine solution (sigma, P4957) for at least 3 hours. Then washed wells 3 times with autoclaved MilliQ water, 5 mins per time.
# 2. Added 500 ul/well of […] Fibronectin (sigma, F0556) and […] Laminin (ROCHE, 11243217001) solution in 1×PBS and placed in incubator overnight to coat.
# 3. Aspirated the Fibronectin/Laminin solution from the wells, washed with culture medium.
# 4. Plated fibroblast cells with Basic Medium at 2×10^4 cells (human adult dermal fibroblasts, ATCC, PCS-201-012) per well, cultured overnight. The Basic Medium comprises: DMEM high glucose (HyClone, SH30022), 10% FBS (Fisher Scientific, SH3007003), 10 mM HEPES (CORNING 25060-CL), 1×MEM NEAA (100×) (GIBCO, 11140) (MEM Non-Essential Amino Acids Solution), 1 mM Na Pyruvate (GIBCO, 25000), 1×2-Mercaptoethanol (1000×) (GIBCO, 21985), 1× Glutamax (100×) (GIBCO, 35050), penicillin/streptomycin.
# 5. Aspirated Basic Medium from the wells.
# 7. Fed wells with Induction Medium. Changed medium every two days. […]
# dermal fibroblasts = experiment: Immunostaining of OPC-specific biomarkers after 7-day induction; assay type: cell-based, human
# Experimental: After 7-day induction with ROCK inhibitor treatment, cells were fixed and analyzed by immunostaining of the OPC-specific biomarker, O4. Immunofluorescence staining was performed as following steps:
# Briefly, 5×10^4 modified human fibroblasts were planted on coated glass coverslips the day before induction. After induction, cells were fixed for 20 min at room temperature in 4% paraformaldehyde in PBS, permeabilized for 30 min in PBS containing 0.2% Triton X-100 and 10% normal goat serum (NGS), and incubated overnight at 4° C. in PBS containing 10% NGS and primary antibodies. Then cells were washed three times with PBS and incubated for 2 h at room temperature with anti-rabbit or anti-mouse secondary antibodies Alexa Fluor-488 or Alexa Fluor-594 (1:500, Invitrogen). The images were acquired by immunofluorescence microscope or Zeiss LSM 510 META confocal microscope with 40×, 1.3 numerical aperture oil-immersion objective.
# The following antibodies were used for the immunofluorescence studies: mouse anti-04 (Millipore, 1:50), rabbit anti-NF (Sigma-Aldrich, 1:1000), mouse anti-A2B5 (Millipore, 1:50), MBP (1:100, Covance; 1:100, Abcam), MAG (Millipore, 1:50), MOG (Millipore, 1:50).
# IMR90 fibroblasts = experiment: Direct conversion of fibroblasts to neurons and astrocytes; assay type: cell-based, human
# Experimental: To assess the general application of ROCK inhibitor for direct conversion of different neural cells, inventors tweaked the protocol for induction of iOPCs and successfully converted fibroblasts to typical neurons and astrocytes. using the following procedure:
# at Day 1, coat tissue culture 24-well plate with 0.1 mg/ml Poly-L-ornithine solution (sigma, P4957) for at least 3 hours; wash wells 3 times with autoclaved MilliQ water, 5 mins each; add 500 ul/well of 2 μg/ml Fibronectin (sigma, F0556) and 10 μg/ml Laminin (ROCHE, 11243217001) solution in 1×PBS and place in incubator overnight to coat. At Day 2, aspirate the F/L solution from the well, wash with basic medium and plate fibroblast cells with basic medium at 2×10^4 cells per well. At Day 3, aspirate basic medium from the well, wash with PBS once, and feed cells with induction medium. From Day 6-10, when cells change their morphology into neural-like cells, culture cells with mature medium or OPC medium.
SMILES,conversion into neural cell (IMR90),conversion into neural cell (WI38),efficiency of conversion of human fibroblasts into iOPCs (OPC positive cells counted by morphology) [1],"fibroblast-OPC conversion (IMR90; IMR90, same conversion conditions (data not shown))","fibroblast-OPC conversion (WI38; WI38, same conversion conditions (data not shown))",dermal fibroblasts converted to O4-positive cells with OPC morphology (dermal fibroblasts; 7-day induction),staining with additional OPC markers A2B5 and S100β (dermal fibroblasts; O4 positive cells after 7-day induction),staining of astrocyte-specific biomarker GFAP in induced astrocytes (IMR90 fibroblasts; induced astrocytes),staining of neuronal biomarkers Tuj and MAP2 in induced neuronal cells (IMR90 fibroblasts; induced neuronal cells (iNCs))
CN(c1ncccc1CNc1nc(Nc2ccc3c(c2)CC(=O)N3)ncc1C(F)(F)F)S(C)(=O)=O [PF562271],converted into neural cell,converted into neural cell,–,–,–,–,–,–,–
C[C@@H](N)[C@H]1CC[C@H](C(=O)Nc2ccncc2)CC1 [Y27632],converted into neural cell,converted into neural cell,~80%,60-80%,60-80%,about 80%,positive staining,positive staining,positive staining
COc1ccc(COc2cc3oc(=O)c4cc(C(C)O)ccc4c3cc2OC)cc1 (stereo not shown) [Palomid 529],converted into neural cell,converted into neural cell,–,–,–,–,–,–,–
